Experimental data taken from publication PMC5515969, “Effects of 31 FDA approved small-molecule kinase inhibitors on isolated rat liver mitochondria” (Archives of Toxicology, 2016).
Structures can show the parent of a compound that is named as a salt. Where two headings read alike, the source gives them in different places. Marks after values point to notes of the source that are not given here.

Columns and labels:
[1] = test system: isolated rat liver mitochondria; test: Mitochondrial ROS production (CM-H2DCFDA); conditions: DMSO treated samples set as 1
[2] = therapeutic maximal blood concentration, ref product labeling, cited from earlier work
[3] = set-up: method as in product labeling; conditions: ref product labeling, cited from earlier work; for Labeling for cardiotoxicity: BBW: black box warning, W&P: Warnings and Precautions
RCC II = target: T1, RCC II (Rattus norvegicus, UniProt P21913+Q641Z9+Q6PCT8+Q920L2); test: RCC II activity in submitochondrial particles; format: biochemical; set-up: key: activity relative to DMSO-treated controls (control set as 1 = 100%); conditions: relative to DMSO treated samples
T1 construct: Submitochondrial particles were prepared by subjecting the intact mitochondria to three successive freeze–thaw cycles; from tissue; host or cells: rat liver mitochondria, used as submitochondrial particles
Protocol: (§1) KIs were incubated with submitochondrial particles (1 mg/ml) for 15 min and then RCC I–V activities measured. […] The activities of DMSO-treated samples (controls) were set as 1. […] The difference between the activity from rotenone-containing buffer and rotenone-absent buffer was considered as RCC I activity. […] For measuring RCC I/V and II activity, the changes in absorbance at 340 and 600 nm, respectively, were determined every 1 min for 6 min. For measuring RCC III and RCC IV, the changes in absorbance at 550 nm were measured every 10 s for 2 min.

[4] = test system: isolated rat liver mitochondria; conditions: positive control alamethicin treated samples
RCC I = RCC I activity in submitochondrial particles; format: biochemical, rat; set-up: key to RCC I at 10XCmax / RCC I at 100XCmax / RCC I at 50XCmax / RCC I at 30XCmax / RCC I at 20XCmax: activity relative to DMSO-treated controls (control set as 1 = 100%); conditions: 10XCmax; relative to DMSO treated samples
Protocol: as §1

RCC V = RCC V activity in submitochondrial particles; format: biochemical, rat; conditions: relative to DMSO treated samples; on RCC V at 5XCmax: key: 0 indicates that the drug had no effects (negative)
Protocol: as §1

[5] = cited from earlier work; for DILI potential (based on labeling): 1 = DILI positive, 0 = negative
[6] = test system: isolated rat liver mitochondria; test: Mitochondrial inner membrane potential (MMP), Rhodamine 123; format: biochemical; conditions: difference in signal between KI and DMSO treated samples at the end of experiments
Description: Fig. 3 KI effects on mitochondrial inner membrane potential (MMP). […] In a, c, data are means and standard derivations from three separate experiments. *p < 0.05 as compared to DMSO-treated samples at the end of experiments. In b, data are means of two independent experiments

[7] = test system: isolated rat liver mitochondria; test: Mitochondrial oxygen consumption (glutamate/malate or succinate driven, state 4 and state 3); format: biochemical; conditions: DMSO treated samples set as 1; on State 3 respiration driven by succinate at 10XCmax: key: 0 indicates that the drug had no effects (negative); on State 3 respiration driven by succinate at 1XCmax: key: 0 indicates that the drug had no effects (negative)
Protocol: Rats were anesthetized by an intraperitoneal injection of Nembutal and the liver perfused with PBS to remove the blood. The liver was then cut into small pieces and homogenized using a Dounce type homogenizer in the ice-cold isolation buffer (IB) containing 200 mM sucrose, 10 mM Tris-MOPS, 1 mM EGTA (pH 7.4). The sample was then centrifuged at 600g for 10 min. The supernatant was further centrifuged at 7500g for 10 min, and the pellets was washed once with the IB and centrifuged again at 7500g for 10 min to collect mitochondria. […] Before drug treatment, the protein concentration was adjusted to 1 mg/ml using appropriate buffer. […] Briefly, mitochondrial and cytosolic fractions from four different preparations using four rats were diluted using the Laemmli protein loading buffer and subject to SDS-PAGE with 4–20% gradient gels. The proteins were blotted to PVDF membranes and detected using antibodies against GAPDH, ATP5A, UQCRC2, SDHB, and NDUFB8.
The aliquoted stock solutions were kept for less than one month and each tube was used only once. The KIs were added to the mitochondria at 1:1000 dilutions. […] The Cmax data were from clinical trials which used FDA recommend dosages, route of administration, and duration. […] The final concentration of DMSO for drug treatment was always 0.1%, and control treatments were 0.1% DMSO.
Briefly, mitochondria were incubated with the KIs for 5 min, and then split evenly and loaded to the sample tubes of two Oxytherm systems (Hansatech Instruments Ltd), with one system used for measuring glutamate/malate driven respiration and the other succinate-driven respiration, both of which were defined as state 4 respiration. After 3 min, ADP was added to measure the maximal oxygen consumption rate, which was defined as state 3 respiration. […] The oxygen consumption rate of DMSO-treated samples (controls) was set as 1.

[8] = test system: isolated rat liver mitochondria; test: Mitochondrial swelling (absorbance at 535 nm); format: biochemical; conditions: difference in signal between KI and DMSO treated samples at the end of experiments; on Swelling 5XCmax: key: 0 indicates that the drug had no effects (negative)

T1 sequence (Q920L2 35-656): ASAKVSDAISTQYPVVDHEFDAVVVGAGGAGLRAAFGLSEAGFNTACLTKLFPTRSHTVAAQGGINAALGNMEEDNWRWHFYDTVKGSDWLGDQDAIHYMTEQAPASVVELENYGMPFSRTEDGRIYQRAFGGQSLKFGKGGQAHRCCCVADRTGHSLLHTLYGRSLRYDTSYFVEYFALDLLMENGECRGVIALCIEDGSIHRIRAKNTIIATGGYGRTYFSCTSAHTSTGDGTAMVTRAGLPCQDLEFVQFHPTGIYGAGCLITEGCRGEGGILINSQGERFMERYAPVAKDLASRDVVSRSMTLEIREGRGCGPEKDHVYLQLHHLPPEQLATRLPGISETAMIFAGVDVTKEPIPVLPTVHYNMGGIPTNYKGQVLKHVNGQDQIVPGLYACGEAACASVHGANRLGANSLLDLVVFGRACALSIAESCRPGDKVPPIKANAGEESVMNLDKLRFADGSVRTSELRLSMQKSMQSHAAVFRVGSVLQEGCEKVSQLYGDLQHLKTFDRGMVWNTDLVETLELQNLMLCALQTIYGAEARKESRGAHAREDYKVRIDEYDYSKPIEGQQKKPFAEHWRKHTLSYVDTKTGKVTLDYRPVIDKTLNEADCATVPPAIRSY
T1 sequence (P21913 31-282): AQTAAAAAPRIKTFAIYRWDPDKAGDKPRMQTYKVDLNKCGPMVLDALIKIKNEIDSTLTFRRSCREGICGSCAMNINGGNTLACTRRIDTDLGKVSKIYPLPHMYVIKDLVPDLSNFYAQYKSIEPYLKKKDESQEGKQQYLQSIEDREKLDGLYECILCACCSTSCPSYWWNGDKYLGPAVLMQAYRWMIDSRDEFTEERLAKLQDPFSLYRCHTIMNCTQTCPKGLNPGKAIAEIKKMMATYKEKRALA
T1 sequence (Q641Z9 1-169): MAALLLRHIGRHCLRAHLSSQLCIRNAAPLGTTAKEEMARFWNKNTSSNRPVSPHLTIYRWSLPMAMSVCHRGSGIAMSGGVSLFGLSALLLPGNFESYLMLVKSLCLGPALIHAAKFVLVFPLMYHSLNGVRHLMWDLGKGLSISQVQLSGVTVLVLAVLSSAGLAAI
T1 sequence (Q6PCT8 57-159): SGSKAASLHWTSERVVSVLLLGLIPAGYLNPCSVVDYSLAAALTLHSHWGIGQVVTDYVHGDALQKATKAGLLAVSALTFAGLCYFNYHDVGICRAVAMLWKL

Row | Compound | ROS measured by CM-H2DCFDA at 1XCmax [1] | ROS measured by CM-H2DCFDA at 2.5XCmax [1] | ROS measured by CM-H2DCFDA at 5XCmax [1] | ROS measured by CM-H2DCFDA at 10XCmax [1] | Labeling for cardiotoxicity [3] | Potential for cardiotoxicity (based on labeling) [3] | RCC II at 1.0XCmax (RCC II) | RCC II at 2.5XCmax (RCC II) | RCC II at 5XCmax (RCC II) | RCC II at 10XCmax (RCC II) | Cytochrome c release 1XCmax [4] | Cytochrome c release 2.5XCmax [4] | Cytochrome c release 5XCmax [4] | RCC I at 10XCmax (RCC I) | DILI potential (based on labeling) ([5]; ref product labeling) | MMP measured by Rhodamine 123 at 1XCmax [6] | MMP measured by Rhodamine 123 at 2.5XCmax [6] | MMP measured by Rhodamine 123 at 5XCmax [6] | MMP measured by Rhodamine 123 at 10XCmax [6] | State 3 respiration driven by succinate at 1XCmax ([7]; 1XCmax) | further results
1 | CNC(=O)c1cc(Oc2ccc(NC(=O)Nc3ccc(Cl)c(C(F)(F)F)c3)cc2)ccn1 [sorafenib tosylate] | 0 | 0 | 0 | 0 | W&P: Cardiac Ischemia and/or Infarction; QT Interval Prolongation | 1 | 0 | 0 | 0 | 0 | 0 | 0 | 12.12±5.17 percentage of the positive control group | 0 | 1 | 4037±631* | 4075±739* | 3781±744* | 3380±680* | 0 | Cmax ([2]; read-out: Cmax at µM): 4.3 µM; RCC V at 10XCmax (RCC V; 10XCmax): 65.55±6.34; Labeling for DILI ([5]; BBW: black box warning, W&P: Warnings and Precautions, ref product labeling): W&P: fatal DILI; State 4 respiration driven by glutamate/malate at 1XCmax ([7]; 1XCmax): 2.55±0.27; State 4 respiration driven by succinate at 1XCmax ([7]; 1XCmax): 1.50±0.21; State 3 respiration driven by glutamate/malate at 2.5XCmax ([7]; 2.5XCmax): 1.57±0.06; State 3 respiration driven by succinate at 2.5XCmax ([7]; 2.5XCmax): 0.62±0.05; State 4 respiration driven by glutamate/malate at 2.5XCmax ([7]; 2.5XCmax): 4.92±0.09; State 4 respiration driven by succinate at 2.5XCmax ([7]; 2.5XCmax): 1.43±0.06; State 3 respiration driven by succinate at 5XCmax ([7]; 5XCmax): 0.40±0.01; State 4 respiration driven by glutamate/malate at 5XCmax ([7]; 5XCmax): 3.69±0.12; State 4 respiration driven by succinate at 5XCmax ([7]; 5XCmax): 0; State 3 respiration driven by succinate at 10XCmax ([7]; 10XCmax): 0; State 4 respiration driven by glutamate/malate at 10XCmax ([7]; 10XCmax): 5.00±1.92; State 4 respiration driven by succinate at 10XCmax ([7]; 10XCmax): 3.34±0.45; Swelling 1XCmax [8]: 0; Swelling 2.5XCmax [8]: 0.29±0.02
2 | CS(=O)(=O)CCNCc1ccc(-c2ccc3ncnc(Nc4ccc(OCc5cccc(F)c5)c(Cl)c4)c3c2)o1 [lapatinib ditosylate monohydrate] | 0 | 0 | 0 | 0 | W&P: Decreased Left Ventricular Ejection Fraction; QT Prolongation | 1 | 0 | 0 | 0 | 0 | 0 | 0 | 0 | 0 | 1 | 0 | 0 | 0 | 0 | 0 | Cmax [2]: 2430 ng/mL; Cytochrome c release 10XCmax ([4]; 10XCmax): 7.91±2.25 percentage of the positive control group; RCC V at 5XCmax (RCC V; 5XCmax): 0; Labeling for DILI ([5]; in vivo): BBW: fatal DILI; State 4 respiration driven by succinate at 1XCmax ([7]; 1XCmax): 0; State 3 respiration driven by succinate at 2.5XCmax ([7]; 2.5XCmax): 0; State 4 respiration driven by succinate at 2.5XCmax ([7]; 2.5XCmax): 0; State 3 respiration driven by succinate at 5XCmax ([7]; 5XCmax): 0; State 4 respiration driven by succinate at 5XCmax ([7]; 5XCmax): 0; State 3 respiration driven by succinate at 10XCmax ([7]; 10XCmax): 0; State 4 respiration driven by succinate at 10XCmax ([7]; 10XCmax): 0; Swelling 1XCmax [8]: 0; Swelling 2.5XCmax [8]: 0; Swelling 5XCmax ([8]; 5XCmax): 0; Swelling 10XCmax ([8]; 10XCmax): 0
